Columns and labels:
[1] = target: T1, human pancreatic α-amylase (HPA) (Homo sapiens, UniProt P04746); assay: ITC; assay type: binding
T1 sequence (P04746 16-511): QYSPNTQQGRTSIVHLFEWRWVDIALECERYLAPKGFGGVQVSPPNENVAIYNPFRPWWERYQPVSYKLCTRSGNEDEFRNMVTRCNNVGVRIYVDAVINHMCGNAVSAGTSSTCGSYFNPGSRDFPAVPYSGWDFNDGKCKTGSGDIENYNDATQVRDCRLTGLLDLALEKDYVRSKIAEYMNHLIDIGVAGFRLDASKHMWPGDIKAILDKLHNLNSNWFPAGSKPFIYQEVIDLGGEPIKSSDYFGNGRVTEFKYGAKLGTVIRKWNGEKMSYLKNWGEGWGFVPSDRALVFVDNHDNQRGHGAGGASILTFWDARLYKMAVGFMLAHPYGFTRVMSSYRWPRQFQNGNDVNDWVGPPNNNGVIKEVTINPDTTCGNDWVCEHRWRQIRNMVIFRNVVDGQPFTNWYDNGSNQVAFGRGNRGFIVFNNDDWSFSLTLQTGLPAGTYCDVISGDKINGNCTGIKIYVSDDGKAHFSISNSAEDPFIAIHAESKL

[2] = target: T1, human pancreatic α-amylase (HPA); assay: hydrolysis kinetics, KM; assay type: biochemical; conditions: read-out: KM ^b

| Structure (SMILES) | Kd [1] [nM] | Km [2] [µM] |
| --- | --- | --- |
| C=CCc1ccc(Oc2cc(CC=C)cc(OC)c2O)c(OC)c1 [DDEB, dehydrodieugenol B] | 1970 |  |
| OC[C@H]1O[C@H](O[C@H]2[C@H](O)[C@@H](O)[C@@H](O[C@H]3[C@H](O)[C@@H](O)[C@@H](O[C@H]4[C@H](O)[C@@H](O)[C@@H](O[C@H]5[C@H](O)[C@@H](O)C(O)O[C@@H]5CO)O[C@@H]4CO)O[C@@H]3CO)O[C@@H]2CO)[C@H](O)[C@@H](O)[C@@H]1O (some centres unmarked) [maltopentaose] |  | 132 ± 6.62 |
